Structures can show the parent of a compound that is named as a salt.
Experiment: Effect of additives on stability at 60° C. (HPLC)
Type: physicochemical
Conditions: for Rate Constant: zero-order
Text: The drug is monitored at a detection wavelength of 232 nm.
The additives in this study are selected from five groups of injectable excipients namely, tonicity modifiers (NaCl and d-mannitol), metal chelators (EDTA), antioxidants (sodium metabisulfite), complexing agents (α-cyclodextrin and niacinamide) and solvents (glycerol and polypropylene glycol). A tonicity modifier is required for adjusting the phentolamine mesylate solution to isotonic. […] Complexing agents were applied in the hope that a possible formation of an inclusion complex (by α-cyclodextrin) or stacking complex (by niacinamide) with phentolamine would modify the rate of hydrolytic degradation of the drug substance. Solvents were added to reduce the dielectric constant of the vehicle and were intended to slow the rate of degradation due to solvent polarity.
The pH value of the solutions was readjusted to pH 3.5, as required.
The 25% glycerol (25 g in 100 ml total volume with water) and 25% polypropylene glycol (25 g in 100 ml total volume with water) solutions had their buffer strength adjusted by addition of acetic acid followed by addition of 2 N NaOH for pH adjustment to pH 3.5 followed by addition of the drug to 0.1 mg/ml.
All samples were placed in 10 ml glass serum vials, stoppered with rubber closures with an inert coating (Daikyo Flurotec by WEST Pharmaceutical), and sealed with flip-top caps after sampling. Vials were placed at 60° C. after the weights were recorded.
Sampling occurred at the initial time point and on days 2, 7, and 14. Vials were weighed, sampled, sealed, re-weighed, and replaced under the selected storage condition until testing at the subsequent time point. Records indicate no significant weight loss during storage.

[1] = EDTA 0.7 mg/ml, sodium acetate pH 3.5, 60° C., Day 14
[2] = Glycerol 25% w/v, sodium acetate pH 3.5, 60° C., Day 7
[3] = NaCl 50 mg/ml, sodium acetate pH 3.5, 60° C., Day 0
[4] = NaCl 50 mg/ml, sodium acetate pH 3.5, 60° C., Day 2
[5] = NaCl 50 mg/ml, sodium acetate pH 3.5, 60° C., Day 7
[6] = NaCl 50 mg/ml, sodium acetate pH 3.5, 60° C., Day 14
[7] = Niacinamide 50 mg/ml, sodium acetate pH 3.5, 60° C., Day 0
[8] = Niacinamide 50 mg/ml, sodium acetate pH 3.5, 60° C., Day 2
[9] = Niacinamide 50 mg/ml, sodium acetate pH 3.5, 60° C., Day 7
[10] = Niacinamide 50 mg/ml, sodium acetate pH 3.5, 60° C., Day 14
[11] = No additive, pH 3.5, 60° C., Day 0
[12] = No additive, pH 3.5, 60° C., Day 2
[13] = No additive, pH 3.5, 60° C., Day 7
[14] = No additive, pH 3.5, 60° C., Day 14
[15] = Sodium metabisulfite 0.5 mg/ml, sodium acetate pH 3.5, 60° C., Day 0
[16] = Sodium metabisulfite 0.5 mg/ml, sodium acetate pH 3.5, 60° C., Day 7
[17] = Sodium metabisulfite 0.5 mg/ml, sodium acetate pH 3.5, 60° C., Day 14
[18] = d-Mannitol 40 mg/ml, sodium acetate pH 3.5, 60° C., Day 0
[19] = d-Mannitol 40 mg/ml, sodium acetate pH 3.5, 60° C., Day 2
[20] = d-Mannitol 40 mg/ml, sodium acetate pH 3.5, 60° C., Day 7
[21] = d-Mannitol 40 mg/ml, sodium acetate pH 3.5, 60° C., Day 14

In the case of `Cc1ccc(N(CC2=NCCN2)c2cccc(O)c2)cc1` [Phentolamine Mesylate, phentolamine mesylate], the “Phentolamine Purity” value (EDTA 0.7 mg/ml, sodium acetate pH 3.5, 60° C., Day 0) is reported as 99 % Peak Area, the “Phentolamine Purity” value (EDTA 0.7 mg/ml, sodium acetate pH 3.5, 60° C., Day 2) is reported as 99 % Peak Area and the “Phentolamine Purity” value (EDTA 0.7 mg/ml, sodium acetate pH 3.5, 60° C., Day 7) is reported as 99 % Peak Area. The “Phentolamine Concentration” value [1] was 99 µg/mL, the “Phentolamine Purity” value [1] was 98 % Peak Area and the “Phentolamine Purity” value (Glycerol 25% w/v, sodium acetate pH 3.5, 60° C., Day 0) was 98 % Peak Area. The “Phentolamine Purity” value (Glycerol 25% w/v, sodium acetate pH 3.5, 60° C., Day 2) was 98 % Peak Area, the “Phentolamine Concentration” value [2] was 120 µg/mL and the “Phentolamine Purity” value [2] was 93 % Peak Area. For the same compound, the “Phentolamine Purity” value (Glycerol 25% w/v, sodium acetate pH 3.5, 60° C., Day 14) was 94 % Peak Area, the “Phentolamine Concentration” value [3] was 94 µg/mL and the “Phentolamine Purity” value [3] was 94 % Peak Area. For the same compound, the “Phentolamine Concentration” value [4] was 98 µg/mL, the “Phentolamine Purity” value [4] was 99 % Peak Area and the “Phentolamine Concentration” value [5] was 80 µg/mL. For the same compound, the “Phentolamine Purity” value [5] was 89 % Peak Area, the “Phentolamine Concentration” value [6] was 74 µg/mL and the “Phentolamine Purity” value [6] was 85 % Peak Area. The “Phentolamine Concentration” value [7] was 90 µg/mL, the “Phentolamine Purity” value [7] was 99 % Peak Area and the “Phentolamine Concentration” value [8] was 90 µg/mL. For the same compound, the “Phentolamine Purity” value [8] was 100 % Peak Area, the “Phentolamine Concentration” value [9] was 78 µg/mL and the “Phentolamine Purity” value [9] was 93 % Peak Area. The “Phentolamine Concentration” value [10] was 92 µg/mL, the “Phentolamine Purity” value [10] was 90 % Peak Area and the “Phentolamine Concentration” value [11] was 90 µg/mL. The “Phentolamine Purity” value [11] was 99 % Peak Area, the “Phentolamine Concentration” value [12] was 92 µg/mL and the “Phentolamine Purity” value [12] was 98 % Peak Area. The “Phentolamine Concentration” value [13] was 82 µg/mL, the “Phentolamine Purity” value [13] was 98 % Peak Area and the “Phentolamine Concentration” value [14] was 77 µg/mL. For the same compound, the “Phentolamine Purity” value [14] was 97 % Peak Area, the “Phentolamine Purity” value (Polypropylene glycol 25% w/v, sodium acetate pH 3.5, 60° C., Day 0) was 93 % Peak Area and the “Phentolamine Purity” value (Polypropylene glycol 25% w/v, sodium acetate pH 3.5, 60° C., Day 2) was 97 % Peak Area. For the same compound, the “Phentolamine Purity” value (Polypropylene glycol 25% w/v, sodium acetate pH 3.5, 60° C., Day 7) was 93 % Peak Area, the “Phentolamine Purity” value (Polypropylene glycol 25% w/v, sodium acetate pH 3.5, 60° C., Day 14) was 90 % Peak Area and the “Phentolamine Concentration” value [15] was 97 µg/mL. The “Phentolamine Purity” value [15] was 97 % Peak Area, the “Phentolamine Purity” value (Sodium metabisulfite 0.5 mg/ml, sodium acetate pH 3.5, 60° C., Day 2) was 99 % Peak Area and the “Phentolamine Concentration” value [16] was 84 µg/mL. For the same compound, the “Phentolamine Purity” value [16] was 95 % Peak Area, the “Phentolamine Concentration” value [17] was 74 µg/mL and the “Phentolamine Purity” value [17] was 92 % Peak Area. For the same compound, the “Phentolamine Concentration” value [18] was 98 µg/mL, the “Phentolamine Purity” value [18] was 96 % Peak Area and the “Phentolamine Concentration” value [19] was 96 µg/mL. The “Phentolamine Purity” value [19] was 97 % Peak Area, the “Phentolamine Concentration” value [20] was 98 µg/mL and the “Phentolamine Purity” value [20] was 96 % Peak Area. The “Phentolamine Concentration” value [21] was 91 µg/mL, the “Phentolamine Purity” value [21] was 97 % Peak Area and the “impact of additive on stability” value (d-Mannitol and disodium EDTA, based on the rate constant, 60° C.) was “improve stability”. For the same compound, the “impact of additive on recovery vs no-additive control” value (sodium metabisulfite, NaCl, glycerol, polypropylene glycol and niacinamide, 60° C.) was “negative impact on the recovery”, the “Rate Constant” value (EDTA 0.7 mg/ml, sodium acetate pH 3.5, 60° C.) was 0.438 µg/mL/day and the “Rate Constant” value (Glycerol 25% w/v, sodium acetate pH 3.5, 60° C.) was 0.726 µg/mL/day. For the same compound, the “Rate Constant” value (NaCl 50 mg/ml, sodium acetate pH 3.5, 60° C.) was 1.663 µg/mL/day, the “Rate Constant” value (Niacinamide 50 mg/ml, sodium acetate pH 3.5, 60° C.) was -0.026 µg/mL/day and the “Rate Constant” value (No additive, pH 3.5, 60° C.) was 1.027 µg/mL/day. The “Rate Constant” value (Polypropylene glycol 25% w/v, sodium acetate pH 3.5, 60° C.) was 1.019 µg/mL/day, the “Rate Constant” value (Sodium metabisulfite 0.5 mg/ml, sodium acetate pH 3.5, 60° C.) was 1.903 µg/mL/day and the “Rate Constant” value (d-Mannitol 40 mg/ml, sodium acetate pH 3.5, 60° C.) was 0.416 µg/mL/day. For the same compound, the “Rate Constant” value (α-Cyclodextrin 50 mg/ml, sodium acetate pH 3.5, 60° C.) was 0.501 µg/mL/day, the “Phentolamine Purity” value (α-Cyclodextran 50 mg/ml, sodium acetate pH 3.5, 60° C., Day 0) was 98 % Peak Area and the “Phentolamine Purity” value (α-Cyclodextran 50 mg/ml, sodium acetate pH 3.5, 60° C., Day 2) was 99 % Peak Area. For the same compound, the “Phentolamine Purity” value (α-Cyclodextran 50 mg/ml, sodium acetate pH 3.5, 60° C., Day 7) was 98 % Peak Area, the “Phentolamine Purity” value (α-Cyclodextran 50 mg/ml, sodium acetate pH 3.5, 60° C., Day 14) was 98 % Peak Area and the “Phentolamine Concentration” value (α-Cyclodextrin 50 mg/ml, sodium acetate pH 3.5, 60° C., Day 2) was 99 µg/mL. For the same compound, the “Phentolamine Concentration” value (α-Cyclodextrin 50 mg/ml, sodium acetate pH 3.5, 60° C., Day 7) was 96 µg/mL, the “Phentolamine Concentration” value (α-Cyclodextrin 50 mg/ml, sodium acetate pH 3.5, 60° C., Day 14) was 94 µg/mL and the “impact of additive on stability” value (α-cyclodextrin, based on purity value, 60° C.) was “negligible”.

— US7229630B2, “Stabilized formulations of alpha adrenergic receptor antagonists and the uses thereof” (Novalar Pharmaceuticals, Inc., priority 2002, dated 2007)
